In US9766227B2, “Screening method for substance having hemocyte maturation acceleration action” (Bloom Technology Co., Ltd., priority 2010, dated 2017):
Like-named read-outs stand apart in the source and are kept apart here.

Legend:
[1] = test system: K562 cells; test: Expression pattern of RGS proteins in hemin-stimulated K562 cell maturation, Western blotting; type: cell-based; conditions: 30 μM hemin, days 3, 6, 9 and 12
Method: K562 cells (5×10^6 cells/10 mL) were cultured by adding 4.5 g glucose/30 μM hemin to a DMEM solvent, and 2.5 mL of the same solvent was added at 3-day intervals. Cells were collected on days 3, 6, 9, and 12, and were dissolved in 100 μL of SDS Loading Buffer (6 M Urea). 10 μL were run on a 12% SDS-GEL, and after transferring to a blotting membrane, this was reacted with respective antibodies to the R4 RGS family (herein RGS1/RGS3/RGS16/RGS18) and another RGS family (herein, RGS14).

[2] = test system: K562 cells; conditions: 0.125 mM, with 30 μM hemin
Source text: Cells were collected on days 0, 3, 6, 12, and 15, and the ability to assist induction of erythrocyte differentiation was examined using cell surface markers, glycophorin A (CD235a) and transferrin receptor (CD71), as indicators.
CD235(+/−)/CD71(++) represent K562 proerythroblast-like cells, CD235(+)/CD71(++) represent K562 basophilic erythroblast-like cells, CD235(+)/CD71(+) represent K562 polychromatic erythroblast-like cells, and CD235(+)/CD71(+/−) represent K562 orthochromatic erythroblast-like cells or reticulocytes. K562 cells are CD71-non-positive cells positioned upstream of pro-erythroblasts.
(§1) Using the same system that uses K562 cells for evaluating induction of differentiation, CD235/CD71 which are the existing indicators for induction of erythrocyte differentiation, and the new indicators lactoferrin (Lf)/C5a receptor (CD88) were compared and examined. Cells were collected on days 0, 3, 6, 12, and 15, and the ability to induce differentiation into erythrocytes was examined using Lf/CD88 as the indicators.
as §1, with “FAS ligand (CD178)/C5a” for “lactoferrin (Lf)/C5a”, “CD178/CD88” for “Lf/CD88”, “indicator.” for “indicators.”

Substance: hemin
- expression of RGS14 [1]: did not change
- expression of the R4 RGS family (RGS1/RGS3/RGS16/RGS18) [1]: increased

Substance: manganese chloride
- induction of differentiation after erythroblast formation ([2]; markers CD178/CD88): inhibited
- number of days taken for maturation to form erythroblasts ([2]; markers CD178/CD88): reduced
- induction of differentiation after erythroblast formation ([2]; markers CD235/CD71): inhibited
- number of days taken for maturation until erythroblast formation ([2]; markers CD235/CD71): reduced
- induction of differentiation after erythroblast formation ([2]; markers Lf/CD88): inhibited
- number of days taken for maturation until erythroblast formation ([2]; markers Lf/CD88): reduced
